Measurements reported in US11207330B2, “Mirtazapine for use in medication overuse headache based on tension-type headache” (Curatis AG, priority 2019, dated 2021).

Tests used:
[1] = system: patients with daily medication overuse headache (MOH) based on tension-type headache; assay: Intake of overused analgesic medication recorded by the same MOH patients; format: in vivo, human; conditions: for Analgesics Usage: 15 to 30 mg mirtazapine per day for 8 weeks, last four weeks of intake; for Reduction of Analgesics Usage versus placebo: mirtazapine 15 to 30 mg per day vs placebo period, last four weeks
Procedure: (§1) a) Patients had daily medication overuse headache (MOH) originating from daily analgesic use primarily against tension-type headache as primary headache. They were treated first with placebo for 8 weeks, followed by two weeks of wash-out (taking placebo), and then administration of 15 to 30 mg of mirtazapine per day for 8 weeks. During that time they were allowed to continue taking their analgesics as usual, if they felt it was necessary.
b) Moreover, the intake of overused analgesic medication was recorded by the same patients and during the time frame as described above in (a). Patient 1 reduced the intake of overused medication by 80% (Table 2). As for patient 2, the reduction is 15%, whereby both patients additionally benefit from improved well-being, i.e. from decreased number of headache attacks, shorter headache attacks with lower headache intensity (see above).

[2] = system: patients with daily medication overuse headache (MOH) based on tension-type headache; assay: Headache diary AUC (headache duration multiplied with headache intensity) in MOH patients, placebo then mirtazapine; format: in vivo, human; conditions: for AUC (sum of daily headache duration multiplied with headache intensity): 15 to 30 mg mirtazapine per day for 8 weeks, last four weeks of intake, analgesics allowed; for Reduction of AUC versus placebo: mirtazapine 15 to 30 mg per day vs placebo period, last four weeks
Procedure: as §1
At the same time, they had to keep a diary where they had to write down the frequency and duration of their headache as well as the headache intensity. After completion of the study the diaries were evaluated and the daily recordings of headache duration was multiplied with headache intensity to give the “AUC”, which means “area under the curve”. The results shown in table 1 and table 2 below are from the last four weeks of intake of either placebo or mirtazapine. […] It can be seen that both patients experienced improvement of their headache upon administration of mirtazapine.
FIG. 1 depicts the subjective well-being of patients, i.e. decreased number of headache attacks, shorter headache attacks with lower headache intensity. The lower the count of the y-axis, the better is the subjective well-being. AUC means area under the curve. AUC was calculated as the sum of the daily recordings of headache duration multiplied with headache intensity.

CN1CCN2c3ncccc3Cc3ccccc3C2C1 (racemic) [Mirtazapine, (RS)-(±)-2-methyl-1,2,3,4,10,14b-hexahydropyrazino[2,1-a]pyrido[2,3-c][2]benzazepine]
Analgesics Usage ([1]; Patient 1): 2 | Reduction of Analgesics Usage versus placebo ([1]; Patient 1): 80% | Reduction of Analgesics Usage versus placebo ([1]; Patient 1, listed as mirtazapine): 80% | Analgesics Usage ([1]; Patient 2): 47 | Reduction of Analgesics Usage versus placebo ([1]; Patient 2): 15% | Reduction of Analgesics Usage versus placebo ([1]; Patient 2, listed as mirtazapine): 15% | AUC (sum of daily headache duration multiplied with headache intensity) ([2]; Patient 1): 420 | Reduction of AUC versus placebo ([2]; Patient 1): 62% | AUC (sum of daily headache duration multiplied with headache intensity) ([2]; Patient 2): 895 | Reduction of AUC versus placebo ([2]; Patient 2): 34%
